Measured values reported in patent publication US8133847B2, “Pyrido[2,3-B]pyrazine derivatives useful as herbicidal compounds” (Syngenta Limited, priority 2006, dated 2012).

Tests used:
Assay in all cases: Example B1 herbicidal action, post-emergence, 96-cell seed trays, climatic chamber
Assay type in all cases: in vivo
[1] = test system: Nasturtium officinale (NAAOF); set-up: scale not given here; conditions: Application post-emergence, 1000 mg/l spray equivalent to 1000 g/ha, evaluated after 9 days (100=total damage to plant, 0=no damage to plant)
Description: (§1) Seeds of a variety of test species were sown in sterilised standard soil in seed trays each having 96 cells. After cultivation for 8 to 9 days cultivation (post-emergence) under controlled conditions in a climatic chamber (cultivation at 23/17° C., day/night; 13 hours light; 50-60% humidity), the plants were treated with an aqueous spray solution of 1000 mg/l of the active ingredient dissolved in 10% DMSO (dimethyl sulfoxide, CAS RN 67-68-5) as a solvent, equivalent to 1000 g/ha. The plants were grown in the climatic chamber after application at (24/19° C., day/night; 13 hours light; 50-60% humidity) and watered twice daily. After 9 days until the test was evaluated (100=total damage to plant, 0=no damage to plant)

[2] = test system: Solanum nigrum (SOLNI); conditions: Application post-emergence, 1000 mg/l spray equivalent to 1000 g/ha, evaluated after 9 days (100=total damage to plant, 0=no damage to plant)
Description: as §1

[3] = test system: Stellaria media (STEME); conditions: Application post-emergence, 1000 mg/l spray equivalent to 1000 g/ha, evaluated after 9 days (100=total damage to plant, 0=no damage to plant)
Description: as §1

[4] = test system: Amaranthus retroflexus (AMARE); conditions: Application post-emergence, 1000 mg/l spray equivalent to 1000 g/ha, evaluated after 9 days
Description: as §1

Row | SMILES | damage to plant, Nasturtium officinale (NAAOF) [1] | damage to plant, Solanum nigrum (SOLNI) [2] | damage to plant, Stellaria media (STEME) [3] | damage to plant, Amaranthus retroflexus (AMARE) [4]
1 | CCC(=O)Oc1c(-c2ccccc2OC(F)(F)F)c(=O)n(C)c2nccnc12 [Compound C28] | 7 | 2 | 7 | 2
2 | Cn1c(=O)c(-c2ccccc2OC(F)(F)F)c(OC(=O)C(C)(C)C)c2nccnc21 [Compound C29] | 2 | 4 | 0 | 0
3 | C=CCn1c(=O)c(-c2c(Cl)cccc2Cl)c(OC(=O)CC)c2nccnc21 [Compound C30] | 8 | 4 | 8 | 8
4 | CCC(=O)Oc1c(-c2c(Cl)cccc2Cl)c(=O)n(CC)c2nccnc12 [Compound C31] | 8 | 4 | 8 | 8
5 | CCC(=O)Oc1c(-c2c(Cl)cccc2Cl)c(=O)n(C)c2nccnc12 [Compound C32] | 8 | 2 | 8 | 8
6 | CC(=O)Oc1c(-c2c(Cl)cccc2Cl)c(=O)n(C)c2nccnc12 [Compound C33] | 7 | 6 | 6 | 3
7 | CCC(=O)Oc1c(-c2c(Cl)cccc2Cl)c(=O)n(CCOC)c2nccnc12 [Compound C34] | 5 | 0 | 6 | 2
8 | C/C=C/C(=O)Oc1c(-c2c(Cl)cccc2Cl)c(=O)n(C)c2nccnc12 [Compound C35] | 7 | 0 | 7 | 2
9 | CCOC(=O)Oc1c(-c2c(Cl)cccc2Cl)c(=O)n(C)c2nccnc12 [Compound C36] | 7 | 6 | 5 | 5
10 | Cn1c(=O)c(-c2c(Cl)cccc2Cl)c(OC(=O)C(C)(C)C)c2nccnc21 [Compound C37] | 7 | 6 | 5 | 5
11 | CCCC(=O)Oc1c(-c2c(Cl)cccc2Cl)c(=O)n(C)c2nccnc12 [Compound C38] | 7 | 7 | 7 | 5
12 | C=CCn1c(=O)c(-c2c(Cl)cccc2Cl)c(OC(=O)OCC)c2nccnc21 [Compound C39] | 6 | 7 | 6 | 7
13 | CCCCn1c(=O)c(-c2c(Cl)cccc2Cl)c(OC(C)=O)c2nccnc21 [Compound C40] | 2 | 2 | 2 | 3
14 | CCn1c(=O)c(-c2c(Cl)cccc2Cl)c(OC(=O)C(C)(C)C)c2nccnc21 [Compound C41] | 2 | 0 | 2 | 2
15 | CC(=O)Oc1c(-c2ccc(Cl)cc2Cl)c(=O)n(C)c2nccnc12 [Compound C43] | 5 | 3 | 5 | 3
16 | CCC(=O)Oc1c(-c2ccc(F)cc2Cl)c(=O)n(C)c2nccnc12 [Compound C44] | 4 | 2 | 6 | 8
17 | CCn1c(=O)c(-c2cccc(Cl)c2Cl)c(OC(=O)C(C)C)c2nccnc21 [Compound C45] | 8 | 6 | 9 | 8
18 | CC(C)Cn1c(=O)c(-c2ccccc2OC(F)(F)F)c(OC(=O)C(C)(C)C)c2nccnc21 [Compound C46] | 1 | 4 | 1 | 0

Row | SMILES | damage to plant, Nasturtium officinale (NAAOF) [1] | damage to plant, Solanum nigrum (SOLNI) [2] | damage to plant, Stellaria media (STEME) [3] | damage to plant, Amaranthus retroflexus (AMARE) [4]
19 | CC(C)(C)C(=O)Oc1c(-c2ccccc2OC(F)(F)F)c(=O)n(CC2CC2)c2nccnc12 [Compound C47] | 1 | 3 | 0 | 4
20 | CC(C)Cn1c(=O)c(-c2c(F)ccc(F)c2Cl)c(OC(=O)C(C)(C)C)c2nccnc21 [Compound C48] | 0 | 1 | 1 | 0
21 | CC(C)(C)C(=O)Oc1c(-c2c(F)ccc(F)c2Cl)c(=O)n(CC2CC2)c2nccnc12 [Compound C49] | 0 | 0 | 3 | 3
22 | Cn1c(=O)c(-c2ccccc2Cl)c(OC(=O)C(C)(C)C)c2nccnc21 [Compound C50] | 7 | 4 | 7 | 4
23 | Cn1c(=O)c(-c2c(F)ccc(F)c2Cl)c(OC(=O)c2ccc([N+](=O)[O-])cc2)c2nccnc21 [Compound C51] | 7 | 0 | 7 | 7
24 | Cn1c(=O)c(-c2ccc3ccccc3c2)c(OC(=O)C(C)(C)C)c2nccnc21 [Compound C52] | 3 | 0 | 3 | 0
25 | Cn1c(=O)c(-c2c(F)ccc(F)c2Cl)c(OC(=O)CC(C)(C)C)c2nccnc21 [Compound C53] | 7 | 3 | 5 | 7
26 | Cn1c(=O)c(-c2c(F)ccc(F)c2F)c(OC(=O)C(C)(C)C)c2nccnc21 [Compound C55] | 0 | 0 | 4 | 4
27 | CC(C)C(=O)c1c(-c2c(Cl)cccc2Cl)c(=O)n(C)c2nccnc12 [Compound C56] | 7 | 0 | 7 | 8
28 | CCn1c(=O)c(-c2c(F)ccc(F)c2F)c(OC(=O)C(C)C)c2nccnc21 [Compound C57] | 6 | 2 | 7 | 5
29 | CC(C)C(=O)Oc1c(-c2c(F)ccc(F)c2F)c(=O)n(C)c2nccnc12 [Compound C58] | 7 | 0 | 8 | 6
30 | CCn1c(=O)c(-c2c(F)ccc(F)c2F)c(OC(=O)C(C)(C)C)c2nccnc21 [Compound C59] | 7 | 0 | 7 | 6
31 | CC(C)C(=O)Oc1c(-c2c(F)ccc(F)c2Cl)c(=O)n(CC2CC2)c2nccnc12 [Compound C60] | 8 | 7 | 5 | 7
32 | Cn1c(=O)c(-c2ccc(Cl)cc2Cl)c(OC(=O)C(C)(C)C)c2nccnc21 [Compound C61] | 8 | 2 | 8 | 8
33 | CCn1c(=O)c(-c2ccc(Cl)cc2Cl)c(OC(=O)C(C)(C)C)c2nccnc21 [Compound C62] | 8 | 1 | 8 | 7
34 | CC(C)C(=O)Oc1c(-c2ccc(Cl)cc2Cl)c(=O)n(C)c2nccnc12 [Compound C63] | 9 | 5 | 8 | 5
35 | CCn1c(=O)c(-c2ccc(Cl)cc2Cl)c(OC(=O)C(C)C)c2nccnc21 [Compound C64] | 10 | 8 | 10 | 6
